This is an account of results in ChEMBL document CHEMBL5678810.

Test [1] addresses NUAK family SNF1-like kinase 1 (Homo sapiens) (UniProt O60285). Kind of test: Inhibition of T7 bacteriophage fused human ARK5 at 10 uM by KINOMEscan analysis relative to control.
Test [2] deals with Mitogen-activated protein kinase kinase kinase 5 (Homo sapiens) (UniProt Q99683). In words: Inhibition of T7 bacteriophage fused human ASK1 at 10 uM by KINOMEscan analysis relative to control.
Test [3] deals with Calcium/calmodulin-dependent protein kinase type 1 (Homo sapiens) (UniProt Q14012). Kind of test: Inhibition of T7 bacteriophage fused human CAMK1 at 10 uM by KINOMEscan analysis relative to control.
For test [4], the target named is Calcium/calmodulin-dependent protein kinase kinase 1 (Homo sapiens) (UniProt Q8N5S9). In words: Inhibition of T7 bacteriophage fused human CAMKK1 at 10 uM by KINOMEscan analysis relative to control.
Test [5] addresses Cyclin-dependent kinase 2 (Homo sapiens) (UniProt P24941). Kind of test: Inhibition of T7 bacteriophage fused human CDK2 at 10 uM by KINOMEscan analysis relative to control.
Test [6] deals with Cyclin-dependent kinase-like 5 (Homo sapiens) (UniProt O76039). Kind of test: Inhibition of T7 bacteriophage fused human CDKL5 at 10 uM by KINOMEscan analysis relative to control.
The target of test [7] is Dual specificity protein kinase CLK3 (Homo sapiens) (UniProt P49761). Kind of test: Inhibition of T7 bacteriophage fused human CLK3 at 10 uM by KINOMEscan analysis relative to control.
Test [8] addresses Casein kinase I isoform alpha-like (Homo sapiens) (UniProt Q8N752). In words: Inhibition of T7 bacteriophage fused human CSNK1A1L at 10 uM by KINOMEscan analysis relative to control.
For test [9], the target named is Casein kinase I isoform epsilon (Homo sapiens) (UniProt P49674). Kind of test: Inhibition of T7 bacteriophage fused human CSNK1E at 10 uM by KINOMEscan analysis relative to control.
For test [10], the system named is Receptor-type tyrosine-protein kinase FLT3 (Homo sapiens), P36888 [UNDEFINED MUTATION]. Kind of test: Inhibition of T7 bacteriophage fused human FLT3 ITD mutant at 10 uM by KINOMEscan analysis relative to control.
Test [11] addresses Vascular endothelial growth factor receptor 3 (Homo sapiens) (UniProt P35916). In words: Inhibition of T7 bacteriophage fused human FLT4 at 10 uM by KINOMEscan analysis relative to control.
In test [12] the target is Interleukin-1 receptor-associated kinase 3 (Homo sapiens) (UniProt Q9Y616). Kind of test: Inhibition of T7 bacteriophage fused human IRAK3 at 10 uM by KINOMEscan analysis relative to control.
Test [13] deals with Tyrosine-protein kinase Lck (Homo sapiens) (UniProt P06239). In words: Inhibition of T7 bacteriophage fused human LCK at 10 uM by KINOMEscan analysis relative to control.
In test [14] the target is Myosin light chain kinase (Homo sapiens) (UniProt Q32MK0). Kind of test: Inhibition of T7 bacteriophage fused human MLCK at 10 uM by KINOMEscan analysis relative to control.
Test [15] concerns the target Serine/threonine-protein kinase Nek3 (Homo sapiens) (UniProt P51956). In words: Inhibition of T7 bacteriophage fused human NEK3 at 10 uM by KINOMEscan analysis relative to control.
The target of test [16] is Phosphatidylinositol 4-phosphate 3-kinase C2 domain-containing subunit beta (Homo sapiens) (UniProt O00750). In words: Inhibition of T7 bacteriophage fused human PIK3C2B at 10 uM by KINOMEscan analysis relative to control.
Test [17] relates to Phosphatidylinositol 4,5-bisphosphate 3-kinase catalytic subunit alpha isoform (Homo sapiens), P42336 [E545K]. Kind of test: Inhibition of T7 bacteriophage fused human PIK3CA E545K mutant at 10 uM by KINOMEscan analysis relative to control.
Test [18] addresses Serine/threonine-protein kinase pim-3 (Homo sapiens) (UniProt Q86V86). Kind of test: Inhibition of T7 bacteriophage fused human PIM3 at 10 uM by KINOMEscan analysis relative to control.
Test [19] addresses Membrane-associated tyrosine- and threonine-specific cdc2-inhibitory kinase (Homo sapiens) (UniProt Q99640). In words: Inhibition of T7 bacteriophage fused human PKMYT1 at 10 uM by KINOMEscan analysis relative to control.
Test [20] has as its target Proto-oncogene tyrosine-protein kinase receptor Ret (Homo sapiens) (UniProt P07949). In words: Inhibition of T7 bacteriophage fused human RET at 10 uM by KINOMEscan analysis relative to control.
Test [21] deals with Ribosomal protein S6 kinase alpha-1 (Homo sapiens) (UniProt Q15418). Kind of test: Inhibition of T7 bacteriophage fused human N-terminal RSK1 Kinase domain-1 at 10 uM by KINOMEscan analysis relative to control.
Test [22] deals with Serine/threonine-protein kinase SBK1 (Homo sapiens) (UniProt Q52WX2). Kind of test: Inhibition of T7 bacteriophage fused human SBK1 at 10 uM by KINOMEscan analysis relative to control.
The target of test [23] is Serine/threonine-protein kinase TNNI3K (Homo sapiens) (UniProt Q59H18). In words: Inhibition of T7 bacteriophage fused human TNNI3K at 10 uM by KINOMEscan analysis relative to control.
Test [24] addresses Mitogen-activated protein kinase 7 (Homo sapiens, UniProt Q13164). Kind of test: Inhibition of T7 bacteriophage fused human ERK5 at 10 uM by KINOMEscan analysis relative to control; values are per cent of control.
Test [25] deals with Mitogen-activated protein kinase 10 (Homo sapiens) (UniProt P53779). Kind of test: Inhibition of T7 bacteriophage fused human JNK3 at 10 uM by KINOMEscan analysis relative to control; values are per cent of control.
Test [26] concerns the target Serine/threonine-protein kinase MARK1 (Homo sapiens) (UniProt Q9P0L2). In words: Inhibition of T7 bacteriophage fused human MARK1 at 10 uM by KINOMEscan analysis relative to control; values are per cent of control.
Test [27] addresses Myosin light chain kinase family member 4 (Homo sapiens) (UniProt Q86YV6). Kind of test: Inhibition of T7 bacteriophage fused human MYLK4 at 10 uM by KINOMEscan analysis relative to control; values are per cent of control.
The test system of test [28] is Epidermal growth factor receptor (Homo sapiens), P00533 [L858R]. In words: Inhibition of T7 bacteriophage fused human EGFR L858R mutant at 10 uM by KINOMEscan analysis relative to control; values are per cent of control.
The test system of test [29] is Epidermal growth factor receptor (Homo sapiens), P00533 [UNDEFINED MUTATION]. In words: Inhibition of T7 bacteriophage fused human EGFR E746/A750del mutant at 10 uM by KINOMEscan analysis relative to control; values are per cent of control.
For test [30], the target named is 3-phosphoinositide-dependent protein kinase 1 (Homo sapiens) (UniProt O15530). In words: Inhibition of PDK1 Lys1 labeling site in human PC-3 cell lysate at 10 uM by KiNativ profiling analysis relative to control.

SMILES strings stand for the structures.

Sequence of Phosphatidylinositol 4-phosphate 3-kinase C2 domain-containing subunit beta (Homo sapiens) (O00750 whole entry, the tested form may be a part, canonical isoform): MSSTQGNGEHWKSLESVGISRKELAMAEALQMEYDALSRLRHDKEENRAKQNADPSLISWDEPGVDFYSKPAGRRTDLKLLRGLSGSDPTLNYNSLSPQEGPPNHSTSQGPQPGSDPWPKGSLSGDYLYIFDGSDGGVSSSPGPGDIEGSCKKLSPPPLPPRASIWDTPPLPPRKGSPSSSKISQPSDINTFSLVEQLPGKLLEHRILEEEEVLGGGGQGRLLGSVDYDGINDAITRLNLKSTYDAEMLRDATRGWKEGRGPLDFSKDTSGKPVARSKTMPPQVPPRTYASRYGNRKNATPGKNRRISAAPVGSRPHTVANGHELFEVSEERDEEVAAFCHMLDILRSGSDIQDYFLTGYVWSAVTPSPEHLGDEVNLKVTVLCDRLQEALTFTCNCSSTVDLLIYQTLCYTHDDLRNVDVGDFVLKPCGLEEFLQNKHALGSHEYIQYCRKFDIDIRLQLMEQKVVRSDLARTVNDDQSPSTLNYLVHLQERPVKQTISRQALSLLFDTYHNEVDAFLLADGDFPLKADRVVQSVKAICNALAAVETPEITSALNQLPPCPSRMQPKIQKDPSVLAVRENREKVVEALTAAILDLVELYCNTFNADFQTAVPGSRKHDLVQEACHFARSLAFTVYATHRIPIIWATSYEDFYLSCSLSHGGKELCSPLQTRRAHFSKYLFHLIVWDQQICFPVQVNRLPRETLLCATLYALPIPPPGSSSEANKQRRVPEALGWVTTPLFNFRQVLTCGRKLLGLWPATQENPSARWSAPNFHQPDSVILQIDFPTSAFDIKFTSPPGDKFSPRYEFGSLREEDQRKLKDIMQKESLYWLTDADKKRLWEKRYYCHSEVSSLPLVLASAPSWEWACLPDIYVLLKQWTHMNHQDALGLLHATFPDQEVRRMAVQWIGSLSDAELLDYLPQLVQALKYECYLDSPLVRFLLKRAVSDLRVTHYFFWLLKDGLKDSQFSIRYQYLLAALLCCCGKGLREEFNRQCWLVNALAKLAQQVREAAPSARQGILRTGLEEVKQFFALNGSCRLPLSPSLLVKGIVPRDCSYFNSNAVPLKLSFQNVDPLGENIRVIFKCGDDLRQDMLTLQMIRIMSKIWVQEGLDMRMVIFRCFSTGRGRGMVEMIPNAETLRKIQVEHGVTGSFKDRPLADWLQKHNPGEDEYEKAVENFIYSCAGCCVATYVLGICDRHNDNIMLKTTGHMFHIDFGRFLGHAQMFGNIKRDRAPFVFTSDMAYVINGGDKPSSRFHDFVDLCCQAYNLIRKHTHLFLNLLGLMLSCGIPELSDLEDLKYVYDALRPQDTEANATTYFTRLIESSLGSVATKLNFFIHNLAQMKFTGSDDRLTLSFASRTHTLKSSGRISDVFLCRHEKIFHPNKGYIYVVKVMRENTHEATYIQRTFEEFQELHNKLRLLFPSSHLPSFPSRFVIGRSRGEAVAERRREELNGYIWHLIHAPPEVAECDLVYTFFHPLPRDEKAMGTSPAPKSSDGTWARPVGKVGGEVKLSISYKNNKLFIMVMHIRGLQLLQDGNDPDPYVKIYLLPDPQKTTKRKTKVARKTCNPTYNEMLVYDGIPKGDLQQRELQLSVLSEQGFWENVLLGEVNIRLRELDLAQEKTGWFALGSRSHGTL
Sequence of 3-phosphoinositide-dependent protein kinase 1 (Homo sapiens) (O15530 whole entry, looked up): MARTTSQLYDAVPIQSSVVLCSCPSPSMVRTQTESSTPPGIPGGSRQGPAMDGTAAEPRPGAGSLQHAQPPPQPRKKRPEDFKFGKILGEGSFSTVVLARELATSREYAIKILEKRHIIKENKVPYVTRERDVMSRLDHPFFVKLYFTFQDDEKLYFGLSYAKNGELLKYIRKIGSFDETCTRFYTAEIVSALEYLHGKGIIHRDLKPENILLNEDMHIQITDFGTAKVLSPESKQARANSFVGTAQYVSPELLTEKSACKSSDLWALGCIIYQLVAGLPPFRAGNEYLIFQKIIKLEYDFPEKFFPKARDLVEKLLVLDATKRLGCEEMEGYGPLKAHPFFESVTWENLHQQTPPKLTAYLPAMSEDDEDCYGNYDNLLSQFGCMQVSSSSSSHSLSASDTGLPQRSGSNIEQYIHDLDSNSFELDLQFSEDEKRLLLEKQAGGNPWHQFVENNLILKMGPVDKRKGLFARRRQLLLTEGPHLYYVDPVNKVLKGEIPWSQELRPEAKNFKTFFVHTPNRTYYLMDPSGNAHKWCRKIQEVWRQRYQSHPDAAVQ
Sequence of NUAK family SNF1-like kinase 1 (Homo sapiens) (O60285 whole entry, the tested form may be a part): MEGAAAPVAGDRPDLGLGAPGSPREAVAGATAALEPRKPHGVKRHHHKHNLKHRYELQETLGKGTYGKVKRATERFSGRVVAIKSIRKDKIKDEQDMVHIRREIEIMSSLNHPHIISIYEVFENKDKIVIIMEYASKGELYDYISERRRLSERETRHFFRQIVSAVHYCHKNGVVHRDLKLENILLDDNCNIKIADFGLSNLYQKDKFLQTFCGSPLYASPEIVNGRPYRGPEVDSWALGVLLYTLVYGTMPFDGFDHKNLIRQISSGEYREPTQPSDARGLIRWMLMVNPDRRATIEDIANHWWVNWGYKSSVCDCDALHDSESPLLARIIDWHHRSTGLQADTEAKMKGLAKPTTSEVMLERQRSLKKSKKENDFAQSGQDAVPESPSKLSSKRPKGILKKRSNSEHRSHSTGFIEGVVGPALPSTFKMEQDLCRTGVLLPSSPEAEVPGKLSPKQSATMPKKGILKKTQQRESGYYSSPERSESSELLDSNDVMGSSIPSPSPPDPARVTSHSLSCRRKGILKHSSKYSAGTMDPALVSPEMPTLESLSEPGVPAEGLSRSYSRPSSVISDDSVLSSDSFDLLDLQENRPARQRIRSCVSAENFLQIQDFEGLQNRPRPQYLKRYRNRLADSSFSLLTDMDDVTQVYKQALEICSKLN
Sequence of Mitogen-activated protein kinase kinase kinase 5 (Homo sapiens) (Q99683 whole entry, the tested form may be a part): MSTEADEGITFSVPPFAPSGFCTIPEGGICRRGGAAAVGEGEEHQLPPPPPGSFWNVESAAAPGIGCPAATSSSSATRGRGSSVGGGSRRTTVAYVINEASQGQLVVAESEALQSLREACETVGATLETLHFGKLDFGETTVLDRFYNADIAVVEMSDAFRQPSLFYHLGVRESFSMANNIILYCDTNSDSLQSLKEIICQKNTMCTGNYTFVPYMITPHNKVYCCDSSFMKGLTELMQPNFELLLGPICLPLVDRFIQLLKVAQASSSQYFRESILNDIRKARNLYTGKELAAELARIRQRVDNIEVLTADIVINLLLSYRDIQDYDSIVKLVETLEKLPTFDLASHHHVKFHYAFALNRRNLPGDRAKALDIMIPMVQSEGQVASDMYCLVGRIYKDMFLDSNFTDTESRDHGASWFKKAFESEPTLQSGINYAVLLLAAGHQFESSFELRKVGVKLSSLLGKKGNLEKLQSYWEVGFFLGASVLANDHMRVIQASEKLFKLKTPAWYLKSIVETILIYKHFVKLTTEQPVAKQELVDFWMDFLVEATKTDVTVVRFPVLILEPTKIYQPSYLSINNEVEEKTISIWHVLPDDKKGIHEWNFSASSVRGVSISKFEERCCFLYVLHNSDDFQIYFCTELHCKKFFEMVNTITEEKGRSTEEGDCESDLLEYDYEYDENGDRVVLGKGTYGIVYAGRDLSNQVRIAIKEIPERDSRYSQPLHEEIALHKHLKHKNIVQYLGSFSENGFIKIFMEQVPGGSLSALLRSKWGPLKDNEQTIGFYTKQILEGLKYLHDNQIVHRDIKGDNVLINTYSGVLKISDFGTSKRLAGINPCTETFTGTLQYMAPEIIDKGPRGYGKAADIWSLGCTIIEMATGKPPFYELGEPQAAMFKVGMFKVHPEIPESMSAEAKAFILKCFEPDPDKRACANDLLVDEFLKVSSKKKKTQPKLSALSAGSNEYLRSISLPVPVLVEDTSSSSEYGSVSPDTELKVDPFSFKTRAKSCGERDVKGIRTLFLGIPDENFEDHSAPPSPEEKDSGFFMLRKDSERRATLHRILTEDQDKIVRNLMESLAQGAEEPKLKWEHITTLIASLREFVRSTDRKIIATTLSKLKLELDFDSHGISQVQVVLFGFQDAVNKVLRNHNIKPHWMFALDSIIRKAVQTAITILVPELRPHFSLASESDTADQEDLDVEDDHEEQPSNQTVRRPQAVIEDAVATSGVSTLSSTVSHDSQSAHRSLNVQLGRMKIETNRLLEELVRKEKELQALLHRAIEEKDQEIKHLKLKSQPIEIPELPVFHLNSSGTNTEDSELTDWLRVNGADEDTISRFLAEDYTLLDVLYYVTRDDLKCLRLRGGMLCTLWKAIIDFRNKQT
Sequence of Serine/threonine-protein kinase Nek3 (Homo sapiens) (P51956 whole entry, the tested form may be a part): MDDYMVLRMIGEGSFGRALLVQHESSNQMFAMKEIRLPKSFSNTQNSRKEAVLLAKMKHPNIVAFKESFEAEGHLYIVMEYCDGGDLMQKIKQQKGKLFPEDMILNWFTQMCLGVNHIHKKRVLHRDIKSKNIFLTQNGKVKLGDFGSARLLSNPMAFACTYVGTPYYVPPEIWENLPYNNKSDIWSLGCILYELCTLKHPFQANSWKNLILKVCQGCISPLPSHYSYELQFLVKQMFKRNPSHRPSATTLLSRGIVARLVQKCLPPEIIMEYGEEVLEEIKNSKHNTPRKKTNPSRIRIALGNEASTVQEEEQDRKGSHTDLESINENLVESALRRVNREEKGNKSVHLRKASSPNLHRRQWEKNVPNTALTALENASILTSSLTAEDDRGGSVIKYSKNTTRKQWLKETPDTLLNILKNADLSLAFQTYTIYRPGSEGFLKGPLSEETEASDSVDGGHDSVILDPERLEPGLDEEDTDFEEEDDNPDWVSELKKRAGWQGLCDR
Sequence of Calcium/calmodulin-dependent protein kinase type 1 (Homo sapiens) (Q14012 whole entry, looked up, the tested form may be a part): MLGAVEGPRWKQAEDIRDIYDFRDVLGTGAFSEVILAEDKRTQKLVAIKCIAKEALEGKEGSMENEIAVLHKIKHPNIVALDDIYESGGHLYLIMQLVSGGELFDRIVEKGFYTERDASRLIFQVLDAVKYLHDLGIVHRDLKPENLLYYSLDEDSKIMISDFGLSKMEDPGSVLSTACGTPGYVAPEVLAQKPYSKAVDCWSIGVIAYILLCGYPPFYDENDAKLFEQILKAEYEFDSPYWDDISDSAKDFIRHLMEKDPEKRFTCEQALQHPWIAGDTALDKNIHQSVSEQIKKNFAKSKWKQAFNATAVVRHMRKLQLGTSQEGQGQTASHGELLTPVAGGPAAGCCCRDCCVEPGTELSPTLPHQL

By inhibition is commonly meant the percentage by which the read-out fell short of the control. Regarding `COc1cc(N2CCC(N3CCN(C)CC3)CC2)ccc1Nc1ncc2c(n1)N(C)c1ccccc1C(=O)N2C`, the inhibition in [1] is 47%; in test [2], 100%; in test [3] it was 55%; in test [4], 73%; in test [5], 100%; in [6], 100%. In addition, the inhibition turned out to be 95% in test [7]; 100% in test [8]; 95% in test [9]; 100% in [10]; 100% in test [11]; 100% in [12]. Besides, the inhibition is 100% in test [13]; 100% in test [14]; 100% in test [15]; 100% in [16]; 100% in test [17]; 88% in test [18]. In addition, the inhibition in [19] amounted to 80%; in test [20], 100%; in test [21], 73%; in test [22], 100%; in test [23], 100%. Further, the residual activity came out at 0.05% in [24]; 77% in [25]; 87% in test [26]; 80% in test [27]; 79% in [28]; 72% in [29].

As for `CCOc1cc(C(=O)N2CCC(N3CCN(C)CC3)CC2)ccc1Nc1ncc2c(n1)N(C1CCCC1)c1ccccc1C(=O)N2C`, the inhibition in test [30] came to 0%.
